Experimental findings from ChEMBL document CHEMBL4330118, “Structure-guided discovery of a novel, potent, and orally bioavailable 3,5-dimethylisoxazole aryl-benzimidazole BET bromodomain inhibitor” (Bioorg Med Chem, 2019) are described below.

What all share (type): ADME, organism-based
Data set [1] is described as follows: Plasma concentration in mouse xenografted with human SU-DHL10 cells at 20 mg/kg, po administered twice daily via gavage for 21 days measured at 12 hrs post last dose.
Data set [2] is described as follows: Plasma concentration in mouse xenografted with human SU-DHL10 cells at 1 mg/kg, po administered twice daily via gavage for 21 days measured at 12 hrs post last dose.
Data set [3] can be described thus: Plasma concentration in mouse xenografted with human SU-DHL10 cells at 10 mg/kg, po administered twice daily via gavage for 21 days measured at 2 hrs post last dose. (In general: A xenograft is tissue or cells of one species grown in another, often human tumour cells in immunodeficient mice.)
Data set [4] in a line: Plasma concentration in mouse xenografted with human SU-DHL10 cells at 20 mg/kg, po administered twice daily via gavage for 21 days measured at 2 hrs post last dose.
Data set [5] is described as follows: Plasma concentration in mouse xenografted with human SU-DHL10 cells at 10 mg/kg, po administered once daily via gavage for 21 days measured at 2 hrs post last dose.
Data set [6] can be described thus: Plasma concentration in mouse xenografted with human SU-DHL10 cells at 3 mg/kg, po administered twice daily via gavage for 21 days measured at 2 hrs post last dose.
Data set [7] in a line: Plasma concentration in mouse xenografted with human SU-DHL10 cells at 3 mg/kg, po administered twice daily via gavage for 21 days measured at 12 hrs post last dose.
Data set [8] can be described thus: Plasma concentration in mouse xenografted with human SU-DHL10 cells at 1 mg/kg, po administered twice daily via gavage for 21 days measured at 2 hrs post last dose.
Data set [9] is described as follows: Plasma concentration in mouse xenografted with human SU-DHL10 cells at 10 mg/kg, po administered once daily via gavage for 21 days measured at 12 hrs post last dose.
Data set [10] is described as follows: Plasma concentration in mouse xenografted with human SU-DHL10 cells at 10 mg/kg, po administered twice daily via gavage for 21 days measured at 12 hrs post last dose.

Turning to `Cc1ccc2ncccc2c1-c1cc(-c2c(C)noc2C)cc2nc(C3CC3)[nH]c12`, the concentration at 12 h turned out to be 32 nM in data set [1]; 13 nM in data set [2]; 18 nM in data set [7]; 207 nM in data set [9]; 32 nM in data set [10]. Further, the concentration at 2 h in [3] came out at 4320 nM; in data set [4] it was 4780 nM; in data set [5], 5830 nM; in [6] it was 2620 nM; in data set [8], 556 nM.
